Measured values published in patent US11000038B2, “Pyridone compounds and agricultural and horticultural fungicides containing the same as active ingredients” (priority 2017, dated 2021).

What was measured:
[1] = test system: cucumber anthracnose fungi (Colletotrichum orbiculare); experiment: Test Example H: cucumber anthracnose, spray treatment of cucumber plants; details: in Cucumis sativus, read-out: Test H control value class (cucumber anthracnose)
Method: [Test Example H] Cucumber Anthracnose
Test plants (cucumber variety: Sagami Hanjiro) were cultivated until one first leaf appeared after the sowing of seeds. In the test, the chemical solution was obtained by dissolving the compound of the present invention in a dimethylsulfoxide-methanol mixed solvent (volume ratio: 9/1) and appropriately diluting the resultant solution with well water so that the concentration was 250 ppm. The obtained chemical solution was sprayed to the test plants (2.5 ml/pot). The plants after the drying of the chemical liquid were inoculated with cucumber anthracnose fungi (Colletotrichum orbiculare) by spraying a conidial suspension of 2 to 4×10^5 conidia/ml. After the inoculation, the plants were allowed to stand, for about 24 hours, in a moist chamber with the room temperature of 20 to 23° C. to promote the onset of disease. The degree of disease development after 6 to 10 days from the inoculation was investigated to evaluate the effect of the chemical solution.
(§1) With respect to each Test Example described above, the degree of disease development was evaluated as a value with increments of 0.05, regarding the degree of disease development for plants with no onset of disease as 0 and that for plants of untreated group as 3. Further, from the degrees of disease development, a control value was calculated according to the calculation formula below.
(§2) n=Degree of disease development of each chemical treated group

[2] = test system: gray mold fungi (Botrytis cinerea); experiment: Test Example B: tomato gray mold, spray treatment of tomato plants; details: in Solanum lycopersicum, read-out: Test B control value class (tomato gray mold)
From the text: [Test Example B] Tomato Gray Mold
Test plants (tomato variety: Oogata Fukuju) were cultivated until three to five first leaves (true leaves) appeared after the sowing of seeds. In the test, the chemical solution was obtained by dissolving the compound of the present invention in a dimethylsulfoxide-methanol mixed solvent (volume ratio: 9/1) and appropriately diluting the resultant solution with well water so that the concentration was 250 ppm. The obtained chemical solution was sprayed to the test plants (2.5 ml/pot). The plants after the drying of the chemical liquid were inoculated with gray mold fungi (Botrytis cinerea) by spraying a conidial suspension of 4 to 8×10^5 conidia/ml. After the inoculation, the plants were allowed to stand, for about 48 hours, in a moist chamber with the room temperature of 20 to 23° C. to promote the onset of disease. The degree of disease development after 2 to 3 days from the inoculation was investigated to evaluate the effect of the chemical solution.
as §1, §2

[3] = test system: rice blast fungi (Magnaporthe grisea); experiment: whole plant or invertebrate; format: in vivo; details: Pyricularia oryzae, read-out: Test A control value class (rice blast)
[4] = test system: wheat brown rust fungi (Puccinia recondita); experiment: Test Example E: wheat brown rust, spray treatment of wheat plants; format: in vivo; details: control value=100{1-(n/3)}, read-out: Test E control value class (wheat brown rust)
[5] = test system: tomato late blight fungi (Phytophthora infestans); experiment: whole plant or invertebrate; format: in vivo; details: read-out: Test F control value class (tomato late blight)
[6] = test system: grape downy mildew fungus (Plasmopara viticola); experiment: Test Example G: grape downy mildew, spray treatment of grape plants; details: read-out: Test G control value class (grape downy mildew)
Method: Test plants (grape variety: Neomuscat) were cultivated until three to four first leaves appeared after the sowing of seeds. In the test, the chemical solution was obtained by dissolving the compound of the present invention in a dimethylsulfoxide-methanol mixed solvent (volume ratio: 9/1) and appropriately diluting the resultant solution with well water so that the concentration was 250 ppm. The obtained chemical solution was sprayed to the test plants (2.5 ml/pot). The plants after the drying of the chemical liquid were inoculated with grape downy mildew fungus (Plasmopara viticola) by spraying a zoosporangial suspension of 1 to 2×10^4 zoosporangia/ml. After the inoculation, the plants were allowed to stand, for about 24 hours, in a moist chamber with the room temperature of 20° C. to promote the onset of disease. The degree of disease development after 7 to 10 days from the inoculation was investigated to evaluate the effect of the chemical solution.
as §1, §2

[7] = test system: cabbage Alternaria sooty spot fungi (Alternaia brassicicola); experiment: Test Example C: cabbage Alternaria sooty spot, spray treatment of cabbage plants; format: in vivo; details: control value=100{1-(n/3)}, read-out: Test C control value class (cabbage Alternaria sooty spot)
From the text: [Test Example C] Cabbage Alternaria Sooty Spot
Test plants (cabbage variety: Shikidori) were cultivated until the cotyledons extended after the sowing of seeds.
<Control Value> Control value=100{1−(n/3)}

Compound	pest or weed control at 250 ppm [1] [%]	pest or weed control at 250 µg/mL [2] [%]	pest or weed control at 250 µg/mL [3] [%]	pest or weed control at 250 µg/mL [4] [%]	pest or weed control at 250 µg/mL [5] [%]	pest or weed control at 250 ppm [6] [%]	pest or weed control at 250 µg/mL [7] [%]
O=c1c(Br)cn(-c2ccccc2Cl)c(-c2c(F)cc(F)cc2F)c1Br [Compound 1, 3,5-dibromo-1-(2-chlorophenyl)-2-(2,4,6-trifluorophenyl)pyridin-4(1H)-one]	> 50	> 50	> 50	> 50	< 50	> 50	> 50
O=c1c(Br)cn(-c2ccccc2Cl)c(-c2c(F)cc(F)cc2F)c1Cl [Compound 2, 5-bromo-3-chloro-1-(2-chlorophenyl)-2-(2,4,6-trifluorophenyl)pyridin-4(1H)-one]	> 50	> 50	> 50	> 50	< 50	> 50	> 50
O=c1c(Cl)cn(-c2ccccc2Cl)c(-c2c(F)cc(F)cc2F)c1Cl [Compound 4, 3,5-dichloro-1-(2-chlorophenyl)-2-(2,4,6-trifluorophenyl)pyridin-4(1H)-one]	> 50	> 50	> 50	> 50	< 50	> 50	> 50
COc1cc(F)c(-c2c(Cl)c(=O)c(Cl)cn2-c2ccccc2Cl)c(F)c1 [Compound 5, 3,5-dichloro-1-(2-chlorophenyl)-2-(2,6-difluoro-4-methoxyphenyl)pyridin-4(1H)-one]	> 50	> 50	> 50	> 50	< 50	> 50	> 50
O=c1c(Br)cn(-c2cccnc2Cl)c(-c2c(F)cc(F)cc2F)c1Br [Compound 38, 3,5-dibromo-2′-chloro-2-(2,4,6-trifluorophenyl)-4H-[1,3′-bipyridin]-4-one]	> 50	> 50	> 50	> 50	> 50	> 50	> 50
O=c1c(Cl)cn(Cc2ccccc2)c(-c2c(F)cc(F)cc2F)c1Br [Compound 49, 1-benzyl-3-bromo-5-chloro-2-(2,4,6-trifluorophenyl)pyridin-4(1H)-one]	> 50	> 50	> 50	> 50	> 50	> 50	> 50
Cc1cc(-n2cc(Cl)c(=O)c(Br)c2-c2c(F)cc(F)cc2F)no1 [Compound 141, 3-bromo-5-chloro-1-(5-methylisoxazol-3-yl)-2-(2,4,6-trifluorophenyl)pyridin-4(1H)-one]	< 50	> 50	< 50	> 50	< 50	< 50	> 50
Cc1onc(-n2cc(Cl)c(=O)c(Br)c2-c2c(F)cc(F)cc2F)c1Br [Compound 142, 3-bromo-1-(4-bromo-5-methylisoxazol-3-yl)-5-chloro-2-(2,4,6-trifluorophenyl)pyridin-4(1H)-one]	> 50	> 50	> 50	> 50	> 50	> 50	> 50
CCC(C)Cn1cc(Cl)c(=O)c(Cl)c1-c1c(F)cc(F)cc1F (centres unmarked) [Compound 162, 3,5-dichloro-1-(2-methylbutyl)-2-(2,4,6-trifluorophenyl)pyridin-4(1H)-one]	> 50	> 50	> 50	> 50	< 50	> 50	> 50
Cc1ccccc1-n1cc(C)c(=O)c(C)c1-c1c(F)cc(F)cc1F [Compound 174, 3,5-dimethyl-1-(o-toluyl)-2-(2,4,6-trifluorophenyl)pyridin-4(1H)-one]	> 50	> 50	> 50	> 50	< 50	> 50	> 50
COc1cc(F)c(-c2c(C)c(=O)c(C)cn2-c2ccccc2C)c(F)c1 [Compound 175, 2-(2,6-difluoro-4-methoxyphenyl)-3,5-dimethyl-1-(o-toluyl)pyridin-4(1H)-one]	> 50	> 50	> 50	> 50	< 50	> 50	> 50
